The values below come from ChEMBL document CHEMBL1828515, “Pantolactams as androgen receptor antagonists for the topical suppression of sebum production” (Bioorg Med Chem Lett, 2011).

Assay [1] concerns the target T1, Androgen receptor (Homo sapiens, UniProt P10275).
T1 sequence (P10275 whole entry): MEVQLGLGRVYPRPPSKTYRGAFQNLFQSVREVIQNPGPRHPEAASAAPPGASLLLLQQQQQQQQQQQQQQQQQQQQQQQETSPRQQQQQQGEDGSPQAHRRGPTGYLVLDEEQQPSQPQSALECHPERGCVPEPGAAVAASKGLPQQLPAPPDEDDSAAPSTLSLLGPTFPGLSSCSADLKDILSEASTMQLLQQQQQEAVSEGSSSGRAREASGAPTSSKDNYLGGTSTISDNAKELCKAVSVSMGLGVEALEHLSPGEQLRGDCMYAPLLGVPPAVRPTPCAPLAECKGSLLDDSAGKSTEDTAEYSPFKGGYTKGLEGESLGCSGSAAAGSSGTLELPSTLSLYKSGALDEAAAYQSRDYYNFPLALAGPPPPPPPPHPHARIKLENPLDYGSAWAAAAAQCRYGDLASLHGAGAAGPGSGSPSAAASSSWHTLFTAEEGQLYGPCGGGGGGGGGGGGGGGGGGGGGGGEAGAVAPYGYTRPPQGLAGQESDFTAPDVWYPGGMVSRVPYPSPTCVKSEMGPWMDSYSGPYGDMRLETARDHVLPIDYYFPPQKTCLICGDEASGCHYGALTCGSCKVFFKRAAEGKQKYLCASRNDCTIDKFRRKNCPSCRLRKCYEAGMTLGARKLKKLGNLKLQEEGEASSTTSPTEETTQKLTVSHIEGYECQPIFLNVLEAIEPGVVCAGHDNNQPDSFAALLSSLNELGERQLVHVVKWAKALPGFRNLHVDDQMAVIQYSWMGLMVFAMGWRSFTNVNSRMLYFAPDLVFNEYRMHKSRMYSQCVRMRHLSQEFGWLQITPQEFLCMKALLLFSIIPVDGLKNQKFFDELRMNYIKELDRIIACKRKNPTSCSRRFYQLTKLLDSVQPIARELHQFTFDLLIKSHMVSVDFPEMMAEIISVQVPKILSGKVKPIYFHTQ
The assay is described as follows: Binding affinity to human androgen receptor.

The target of assay [2] is T1, Androgen receptor. The assay is described as follows: Antagonist activity at human androgen receptor by cell based assay. The assay is classed as functional.
Assay [3] deals with Syrian golden hamster. The assay is described as follows: Reduction of cholesterol ester in Syrian golden hamster ear model at 1 % administered topically. The arrangement: scale not given: the % may be the effect or the level left. Format: functional, Mesocricetus auratus.
The test system of assay [4] is Syrian golden hamster. The assay is described as follows: Reduction of wax ester in Syrian golden hamster ear model at 1 % administered topically. The assay is classed as functional, Mesocricetus auratus. Further details: scale not given: the % may be the effect or the level left.
In assay [5] the test system is Syrian golden hamster. The assay is described as follows: Reduction of cholesterol ester in Syrian golden hamster ear model at 2 % administered topically. The assay is classed as functional, Mesocricetus auratus. The arrangement: scale not given: the % may be the effect or the level left.
For assay [6], the system named is Syrian golden hamster. The assay is described as follows: Reduction of wax ester in Syrian golden hamster ear model at 2 % administered topically. Format: functional, Mesocricetus auratus. The arrangement: scale not given: the % may be the effect or the level left.
For assay [7], the system named is Syrian golden hamster. The assay is described as follows: Reduction of wax ester in Syrian golden hamster ear model at 3 % administered topically. Format: functional, Mesocricetus auratus. The arrangement: scale not given: the % may be the effect or the level left.
The subject of assay [8] is Syrian golden hamster. The assay is described as follows: Reduction of cholesterol ester in Syrian golden hamster ear model at 3 % administered topically. The assay is classed as functional, Mesocricetus auratus. The arrangement: scale not given: the % may be the effect or the level left.
Assay [9] concerns Syrian golden hamster. The assay is described as follows: Reduction of cholesterol ester in Syrian golden hamster ear model at 1.5 % administered topically. Format: functional, Mesocricetus auratus. Further details: scale not given: the % may be the effect or the level left.
The subject of assay [10] is Syrian golden hamster. The assay is described as follows: Reduction of wax ester in Syrian golden hamster ear model at 1.5 % administered topically. The assay is classed as functional, Mesocricetus auratus. The arrangement: scale not given: the % may be the effect or the level left.

One may read the IC50 as the point on the concentration scale where inhibition reaches its midpoint. With `CC1(C)COC(=O)[C@@H]1Oc1ccc(C#N)c(C(F)(F)F)c1`, the figures for the IC50 on Androgen receptor [1] and at Androgen receptor [2] were 70 nM and 42 nM, respectively.

For `CC1(C)COC(=O)[C@H]1Oc1ccc(C#N)c(C(F)(F)F)c1`, the concentration for half-maximal inhibition (IC50) on Androgen receptor [1] is 10000 nM; on Androgen receptor [2], 1000 nM.

As to `CC1(C)COC(=O)C1Oc1ccc(C#N)c(C(F)(F)F)c1` (racemic), the figures for the half-inhibitory concentration (IC50) on Androgen receptor [1] and at Androgen receptor [2] were 113 nM and 70 nM, respectively.

`CC1(C)CNC(=O)C1Oc1ccc(C#N)c(C(F)(F)F)c1` (racemic): the values for the concentration for half-maximal inhibition (IC50) at Androgen receptor [1] and at Androgen receptor [2] were 2790 nM and 82 nM, respectively.

`CN1CC(C)(C)C(Oc2ccc(C#N)c(C(F)(F)F)c2)C1=O` (racemic) registered a concentration for half-maximal inhibition (IC50) on Androgen receptor [1] of 1210 nM.

As to `CCCN1CC(C)(C)C(Oc2ccc(C#N)c(C(F)(F)F)c2)C1=O` (racemic), it took 24 nM to reach half-maximal inhibition against Androgen receptor [2] (IC50).

As for `CCCCN1CC(C)(C)C(Oc2ccc(C#N)c(C(F)(F)F)c2)C1=O` (racemic), the half-maximal inhibitory concentration (IC50) turned out to be 119 nM at Androgen receptor [1] and 16 nM against Androgen receptor [2].

Turning to `CCCCCCN1CC(C)(C)C(Oc2ccc(C#N)c(C(F)(F)F)c2)C1=O` (racemic), the IC50 on Androgen receptor [1] was found to be 766 nM.

Turning to `CCCC(C)N1CC(C)(C)C(Oc2ccc(C#N)c(C(F)(F)F)c2)C1=O` (racemic), the values for the half-maximal inhibitory concentration (IC50) on Androgen receptor [1] and on Androgen receptor [2] were 200 nM and 6 nM, respectively.

`CCC(CC)CN1CC(C)(C)C(Oc2ccc(C#N)c(C(F)(F)F)c2)C1=O` (racemic) came in with an IC50 on Androgen receptor [1] of 444 nM.

Consider `CC(C)CCCN1CC(C)(C)C(Oc2ccc(C#N)c(C(F)(F)F)c2)C1=O` (racemic), for which, at Androgen receptor [1], the half-inhibitory concentration (IC50) was 802 nM.

With `COCN1CC(C)(C)C(Oc2ccc(C#N)c(C(F)(F)F)c2)C1=O` (racemic), the IC50 at Androgen receptor [1] was 516 nM.

For `COCCN1CC(C)(C)C(Oc2ccc(C#N)c(C(F)(F)F)c2)C1=O` (racemic), the IC50 on Androgen receptor [1] turned out to be 1770 nM.

`CSCCN1CC(C)(C)C(Oc2ccc(C#N)c(C(F)(F)F)c2)C1=O` (racemic) registered an IC50 on Androgen receptor [1] of 2450 nM.

Compound `CC1(C)CN(CCCO)C(=O)C1Oc1ccc(C#N)c(C(F)(F)F)c1` (racemic) returned an IC50 on Androgen receptor [1] of 523 nM.

Consider `COC(=O)CN1CC(C)(C)C(Oc2ccc(C#N)c(C(F)(F)F)c2)C1=O` (racemic), for which the IC50 on Androgen receptor [1] stood at 494 nM.

In turn, `CCOC(=O)CN1CC(C)(C)C(Oc2ccc(C#N)c(C(F)(F)F)c2)C1=O` (racemic) had an IC50 on Androgen receptor [1] of 3520 nM.

For the compound `CCNC(=O)CN1CC(C)(C)C(Oc2ccc(C#N)c(C(F)(F)F)c2)C1=O` (racemic), the IC50 at Androgen receptor [1] was 4910 nM.

On to `CC1(C)CN(Cc2ccccc2)C(=O)C1Oc1ccc(C#N)c(C(F)(F)F)c1` (racemic), for which the half-maximal inhibitory concentration (IC50) came to 30 nM on Androgen receptor [1] and 11 nM at Androgen receptor [2].

Take `COc1cccc(CN2CC(C)(C)C(Oc3ccc(C#N)c(C(F)(F)F)c3)C2=O)c1` (racemic): the 50% inhibitory concentration (IC50) against Androgen receptor [2] was 309 nM.

Compound `COc1ccc(CN2CC(C)(C)C(Oc3ccc(C#N)c(C(F)(F)F)c3)C2=O)cc1` (racemic) yielded a concentration for half-maximal inhibition (IC50) at Androgen receptor [1] of 284 nM.

As for `CC1(C)CN(Cc2ccccc2F)C(=O)C1Oc1ccc(C#N)c(C(F)(F)F)c1` (racemic), the IC50 on Androgen receptor [1] worked out at 174 nM; on Androgen receptor [2], 44 nM.

Regarding `CC1(C)CN(Cc2cccc(F)c2)C(=O)C1Oc1ccc(C#N)c(C(F)(F)F)c1` (racemic), the figures for the IC50 on Androgen receptor [1] and against Androgen receptor [2] were 48 nM and 61 nM, respectively.

As to `CC1(C)CN(Cc2ccc(F)cc2)C(=O)C1Oc1ccc(C#N)c(C(F)(F)F)c1` (racemic), 199 nM corresponded to half-maximal inhibition at Androgen receptor [2] (IC50).

In the case of `CC1(C)CN(Cc2ccccc2O)C(=O)C1Oc1ccc(C#N)c(C(F)(F)F)c1` (racemic), the IC50 on Androgen receptor [2] is 13 nM.

The compound `CC1(C)CN(Cc2cccc(O)c2)C(=O)C1Oc1ccc(C#N)c(C(F)(F)F)c1` (racemic) yielded a half-inhibitory concentration (IC50) against Androgen receptor [2] of more than 600 nM.

As for `CC1(C)CN(Cc2ccc(O)cc2)C(=O)C1Oc1ccc(C#N)c(C(F)(F)F)c1` (racemic), on Androgen receptor [2], it took 32 nM to reach half-maximal inhibition (IC50).

Turning to `CC1(C)CN(Cc2ccccn2)C(=O)C1Oc1ccc(C#N)c(C(F)(F)F)c1` (racemic), on Androgen receptor [1], the IC50 stood at 767 nM.

`CC1(C)CN(Cc2cccnc2)C(=O)C1Oc1ccc(C#N)c(C(F)(F)F)c1` (racemic) displayed a half-maximal inhibitory concentration (IC50) on Androgen receptor [1] of 880 nM.

Compound `CC1(C)CN(Cc2ccncc2)C(=O)C1Oc1ccc(C#N)c(C(F)(F)F)c1` (racemic) displayed an IC50 at Androgen receptor [2] of more than 600 nM.

Turning to `CCOC(=O)c1ccc(CN2CC(C)(C)C(Oc3ccc(C#N)c(C(F)(F)F)c3)C2=O)o1` (racemic), the figures for the IC50 on Androgen receptor [1] and against Androgen receptor [2] were 166 nM and 97 nM, respectively.

Turning to `COC(=O)c1csc(CN2CC(C)(C)C(Oc3ccc(C#N)c(C(F)(F)F)c3)C2=O)n1` (racemic), on Androgen receptor [2], the IC50 was more than 900 nM.

The compound `CC1(C)CN(Cc2nc3ccccc3s2)C(=O)C1Oc1ccc(C#N)c(C(F)(F)F)c1` (racemic) returned an IC50 at Androgen receptor [2] of 51 nM.

Take `Cc1nc(CN2CC(C)(C)C(Oc3ccc(C#N)c(C(F)(F)F)c3)C2=O)cs1` (racemic): on Androgen receptor [1], the IC50 came to 324 nM.

Regarding `CC1(C)CN(Cc2noc(-c3ccccc3)n2)C(=O)C1Oc1ccc(C#N)c(C(F)(F)F)c1` (racemic), the half-inhibitory concentration (IC50) on Androgen receptor [1] came to 84 nM; against Androgen receptor [2], 40 nM.

With `CC1(C)CN(Cc2nc(-c3ccccc3)no2)C(=O)C1Oc1ccc(C#N)c(C(F)(F)F)c1` (racemic), at Androgen receptor [2], the half-inhibitory concentration (IC50) is 54 nM.

As for `CCCN1CC(C)(C)C(Oc2ccc(C#N)c(C(F)(F)F)c2)C1=O` (single isomer, unassigned; (+)), the Activity in the assay on Syrian golden hamster [3] is on record as 76%; in the assay on Syrian golden hamster [4] it was 85%. The concentration for half-maximal inhibition (IC50) was determined as 225 nM on Androgen receptor [1] and 83 nM against Androgen receptor [2].

Turning to `CCCCN1CC(C)(C)C(Oc2ccc(C#N)c(C(F)(F)F)c2)C1=O` (single isomer, unassigned; (+)), the Activity in the assay with Syrian golden hamster [5] was 66%; in the assay with Syrian golden hamster [6], 83%. In addition, the IC50 at Androgen receptor [1] is 91 nM; at Androgen receptor [2] it was 10 nM.

On to `CCC(C)N1CC(C)(C)C(Oc2ccc(C#N)c(C(F)(F)F)c2)C1=O` (single isomer, unassigned; (+)), for which the half-maximal inhibitory concentration (IC50) at Androgen receptor [1] is 132 nM; against Androgen receptor [2], 32 nM.

With `CC1(C)CN(Cc2ccccc2)C(=O)C1Oc1ccc(C#N)c(C(F)(F)F)c1` (single isomer, unassigned; (+)), the IC50 stood at 100 nM on Androgen receptor [1] and 38 nM against Androgen receptor [2]. Further, the Activity in the assay with Syrian golden hamster [7] turned out to be 83%; in the assay on Syrian golden hamster [8], 68%.

Consider `CC1(C)CN(Cc2ccccc2F)C(=O)C1Oc1ccc(C#N)c(C(F)(F)F)c1` (single isomer, unassigned; (+)), for which the results for the half-inhibitory concentration (IC50) at Androgen receptor [1] and on Androgen receptor [2] were 112 nM and 92 nM, respectively. The Activity amounted to 86% in the assay on Syrian golden hamster [7] and 70% with Syrian golden hamster [8].

As for `CSc1ccc(CN2CC(C)(C)C(Oc3ccc(C#N)c(C(F)(F)F)c3)C2=O)cc1` (single isomer, unassigned; (+)), the values for the Activity in the assay on Syrian golden hamster [9] and with Syrian golden hamster [10] were 75% and 89%, respectively. Moreover, the results for the IC50 on Androgen receptor [1] and against Androgen receptor [2] were 316 nM and 28 nM, respectively.

Turning to `CCC(C)N1CC(C)(C)C(Oc2ccc(C#N)c(C(F)(F)F)c2)C1=O` (stereo in doubt; 18), at Androgen receptor [1], the IC50 was determined as 9790 nM.

For the compound `CSc1ccc(CN2CC(C)(C)C(Oc3ccc(C#N)c(C(F)(F)F)c3)C2=O)cc1` (stereo in doubt; 38), the IC50 was 187 nM on Androgen receptor [1] and 51 nM against Androgen receptor [2].

In turn, `CC1(C)C(=O)N(c2ccc(C#N)c(C(F)(F)F)c2)C(=O)N1CCCCO` [RU-58841] displayed an Activity with Syrian golden hamster [4] of 95%.
